Reference: ChEMBL document CHEMBL1125802, “Isolation and structure of the cell growth inhibitory constituents from the western Pacific marine sponge Axinella sp” (1991)
Converted amounts (≈) assume the structure as drawn. Values belong to the molecule of their own block, whether it stands above or below them. Where a SMILES comes first, the peptide text is derived from it.

Legend:
P388 [1] = test: T/C at 150 ug/kg; format: functional, Mus musculus
P388 [2] = test: T/C at 25 mg/kg; format: functional, Mus musculus
P388 [3] = test: Effect on P388 lymphocytic leukemia (PS system) cell growth; format: functional; settings: Mus musculus, read-out: ED50 (the source's name)
P388 [4] = test: Effect on change in life span of P388 lymphocytic leukemia (PS system) cell growth at 100 mg/kg; format: functional, Mus musculus
P388 [5] = test: Effect on P388 lymphocytic leukemia (PS system) cell growth […]; format: functional; settings: Mus musculus, read-out: ED50 (the source's name)

Compound: C=C1C[C@@H]2CC[C@@]34C[C@H]5O[C@H]6[C@@H](O3)[C@H]3O[C@H](CC[C@@H]3O[C@H]6[C@H]5O4)CC(=O)O[C@@H]3[C@@H](C)[C@@H]4O[C@@H]5C[C@]6(C[C@@H]7O[C@]8(C[C@H](C)[C@@H]9O[C@@H]%10CC(C(O)CO)O[C@@H]%10C[C@@H]9O8)C[C@H](C)[C@@H]7O6)O[C@@H]5C[C@@H]4O[C@H]3C[C@H]3O[C@@H](CC[C@@H]1O2)C[C@@H](C)C3=C (stereo not given in full) [HOMOHALICHONDRIN B]
T/C (P388 [1]): 285

Compound: C=C1C[C@@H]2CC[C@@]34C[C@H]5O[C@H]6[C@@H](O3)[C@H]3O[C@H](CC[C@@H]3O[C@H]6[C@H]5O4)CC(=O)O[C@@H]3[C@@H](C)[C@@H]4O[C@@H]5C[C@]6(C[C@@H]7O[C@]8(C[C@H](C)[C@@H]9O[C@H]([C@@H](O)C[C@@H](O)CO)C[C@@H]9O8)C[C@H](C)[C@@H]7O6)O[C@@H]5C[C@@H]4O[C@H]3C[C@H]3O[C@@H](CC[C@@H]1O2)C[C@@H](C)C3=C [HALICHONDRIN B]
T/C (P388 [2]): 238

Compound: CC(C)O.ClCCl
EC50 (P388 [3]): 2.5 µg/mL
Life span (P388 [4]): 10%

EC50 (P388 [5]): 0.21 µg/mL (≈ 0.279 µM)
Compound: CC(C)[C@@H]1NC(=O)[C@H](Cc2ccccc2)NC(=O)[C@@H]2CCCN2C(=O)[C@H](CC(N)=O)NC(=O)[C@H](C(C)C)NC(=O)[C@@H]2CCCN2C(=O)[C@H](C(C)C)NC1=O (cyclo(FVVPVNP))
